Results taken from BindingDB's records for doi:10.1021/jm990250u (Hoechst Marion Roussel, 1999).
pIC50: −log10 of the molar value.

Target: Stromelysin-1 (Homo sapiens, UniProt P08254)
Test: Inhibitory concentration against human matrix metalloprotease-3 (MMP-3)

Stromelysin-1, sequence (P08254 whole entry): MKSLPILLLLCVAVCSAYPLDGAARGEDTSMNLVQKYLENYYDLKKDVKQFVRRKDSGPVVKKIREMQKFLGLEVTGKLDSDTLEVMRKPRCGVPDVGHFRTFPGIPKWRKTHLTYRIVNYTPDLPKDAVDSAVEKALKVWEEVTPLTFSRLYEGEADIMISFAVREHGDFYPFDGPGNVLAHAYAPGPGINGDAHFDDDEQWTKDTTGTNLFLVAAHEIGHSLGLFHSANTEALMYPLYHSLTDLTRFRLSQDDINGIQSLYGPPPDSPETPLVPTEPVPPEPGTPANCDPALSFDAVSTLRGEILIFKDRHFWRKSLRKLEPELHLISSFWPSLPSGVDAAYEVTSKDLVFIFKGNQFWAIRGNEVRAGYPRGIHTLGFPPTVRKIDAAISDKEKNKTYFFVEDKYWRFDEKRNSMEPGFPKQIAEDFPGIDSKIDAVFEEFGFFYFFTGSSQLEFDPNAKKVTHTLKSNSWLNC

Structure (SMILES)	pIC50
O=C(Nc1cccc(S(=O)(=O)N2Cc3ccccc3CC2C(=O)NO)c1)c1ccccc1O (configuration not stated) [2-[3-(2-Hydroxy-benzoylamino)-benzenesulfonyl]-1,2,3,4-tetrahydro-isoquinoline-3-carboxylic acid hydroxyamide]	5.00
CSc1nccc(-c2ccc(S(=O)(=O)N3Cc4ccccc4CC3C(=O)O)s2)n1 (configuration not stated)	5.00
COc1ccc(S(=O)(=O)N2Cc3ncn(C)c3C[C@@H]2C(=O)O)cc1 [(R)-5-(4-Methoxy-benzenesulfonyl)-1-methyl-4,5,6,7-tetrahydro-1H-imidazo[4,5-c]pyridine-6-carboxylic acid]	5.00
CCCCCCCCCCCCCCCCS(=O)(=O)N1Cc2ccccc2CC1C(=O)NO (configuration not stated) [2-(Hexadecane-1-sulfonyl)-1,2,3,4-tetrahydro-isoquinoline-3-carboxylic acid hydroxyamide]	5.00

The next lines start with the values.

pIC50	Structure (SMILES)
5.00	O=C(NO)C1Cc2ccccc2CN1S(=O)(=O)c1cc(Br)c(Br)s1 (configuration not stated) [2-(4,5-Dibromo-thiophene-2-sulfonyl)-1,2,3,4-tetrahydro-isoquinoline-3-carboxylic acid hydroxyamide]
5.00	O=C(NO)C1Cc2ccccc2CN1S(=O)(=O)Cc1ccccc1 (configuration not stated) [2-Phenylmethanesulfonyl-1,2,3,4-tetrahydro-isoquinoline-3-carboxylic acid hydroxyamide]
5.00	O=C(NO)C1Cc2ccccc2CN1S(=O)(=O)c1cc(S(=O)(=O)c2ccccc2)cs1 (configuration not stated) [2-(4-Benzenesulfonyl-thiophene-2-sulfonyl)-1,2,3,4-tetrahydro-isoquinoline-3-carboxylic acid hydroxyamide]
